Laboratory results published in PubChem BioAssay (NCI).
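Briefly, cells in 96-well plates were exposed to five compound concentrations for 48 h, and endpoints were estimated by linear interpolation. At the GI50, growth is halved. TGI: concentration producing complete growth inhibition.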

Assays:
Experiment in all cases: NCI tumour cell line growth inhibition, 48 h
OVCAR-4 ovarian = test system: OVCAR-4 ovarian
UACC-62 melanoma = test system: UACC-62 melanoma
HCC-2998 colon = test system: HCC-2998 colon
HL-60(TB) leukemia = test system: HL-60(TB) leukemia
A549 NSCLC = test system: A549 NSCLC
MALME-3M melanoma = test system: MALME-3M melanoma
IGROV1 ovarian = test system: IGROV1 ovarian
HCT-15 colon = test system: HCT-15 colon
U251 CNS = test system: U251 CNS
HCT-116 colon = test system: HCT-116 colon

With `COc1cc(C2CC(c3ccccc3)=NN2C(C)=O)cc(OC)c1OC` (configuration not stated) the GI50 (OVCAR-4 ovarian) was 11.7 µM, the TGI (OVCAR-4 ovarian) was > 100 µM and the GI50 (UACC-62 melanoma) was 4.2 µM. For the same molecule, the TGI (UACC-62 melanoma) was > 100 µM, the GI50 (HCC-2998 colon) was 6.4 µM and the TGI (HCC-2998 colon) was > 74 µM. The GI50 (HL-60(TB) leukemia) was 3.26 µM, the TGI (HL-60(TB) leukemia) was > 31.7 µM and the GI50 (A549 NSCLC) was 6.63 µM. For the same molecule, the TGI (A549 NSCLC) was > 100 µM, the GI50 (MALME-3M melanoma) was 13 µM and the TGI (MALME-3M melanoma) was > 100 µM. For the same molecule, the GI50 (IGROV1 ovarian) was 4.66 µM, the TGI (IGROV1 ovarian) was > 100 µM and the GI50 (HCT-15 colon) was 2.48 µM. For the same molecule, the TGI (HCT-15 colon) was > 100 µM, the GI50 (U251 CNS) was 3.93 µM and the TGI (U251 CNS) was > 100 µM. For the same molecule, the GI50 (HCT-116 colon) was 2.83 µM and the TGI (HCT-116 colon) was > 100 µM.
With `Cc1ccc(-c2nc(N)c(C#N)c3c2CCOc2c-3ccc3ccccc23)cc1` the GI50 (OVCAR-4 ovarian) was 16.3 µM, the TGI (OVCAR-4 ovarian) was > 79.5 µM and the GI50 (UACC-62 melanoma) was 0.935 µM. The TGI (UACC-62 melanoma) was > 100 µM, the GI50 (HCC-2998 colon) was 0.142 µM and the GI50 (HL-60(TB) leukemia) was 0.0891 µM. It also gave a TGI (HL-60(TB) leukemia) of 0.916 µM, a GI50 (A549 NSCLC) of 1.2 µM and a TGI (A549 NSCLC) of 22.9 µM. The GI50 (MALME-3M melanoma) was 0.0779 µM, the TGI (MALME-3M melanoma) was 7.89 µM and the GI50 (IGROV1 ovarian) was 0.359 µM. For the same molecule, the TGI (IGROV1 ovarian) was > 100 µM, the GI50 (HCT-15 colon) was 0.0543 µM and the GI50 (U251 CNS) was 0.222 µM. It also gave a TGI (U251 CNS) of 4.25 µM and a GI50 (HCT-116 colon) of 0.21 µM.
With `O=C(Cc1ccccc1)NC(c1ccc(Cl)cc1)c1c(O)ccc2ccccc12` (configuration not stated) the GI50 (OVCAR-4 ovarian) was 2.73 µM, the TGI (OVCAR-4 ovarian) was 10.2 µM and the GI50 (UACC-62 melanoma) was 2.25 µM. The TGI (UACC-62 melanoma) was 6.07 µM, the GI50 (HCC-2998 colon) was 3.2 µM and the TGI (HCC-2998 colon) was 12.2 µM. The GI50 (HL-60(TB) leukemia) was 2.43 µM, the TGI (HL-60(TB) leukemia) was 6.39 µM and the GI50 (A549 NSCLC) was 3.68 µM. The TGI (A549 NSCLC) was 13.3 µM, the GI50 (MALME-3M melanoma) was 2.69 µM and the TGI (MALME-3M melanoma) was 8.22 µM. For the same molecule, the GI50 (IGROV1 ovarian) was 4.67 µM, the TGI (IGROV1 ovarian) was 18.3 µM and the GI50 (HCT-15 colon) was 2.83 µM. For the same molecule, the TGI (HCT-15 colon) was 10.5 µM, the GI50 (U251 CNS) was 2.55 µM and the TGI (U251 CNS) was 6.94 µM. For the same molecule, the GI50 (HCT-116 colon) was 2.17 µM and the TGI (HCT-116 colon) was 5.16 µM.
In the case of `CC(=O)c1ccc(NC(=O)C(=O)C(C(=O)c2ccc(Cl)c(Cl)c2)C2OC(=O)c3ccccc32)cc1` (configuration not stated), the TGI (OVCAR-4 ovarian) is reported as > 100 µM, the TGI (UACC-62 melanoma) is reported as 33.7 µM and the TGI (HCC-2998 colon) is reported as 26.9 µM. For the same molecule, the TGI (HL-60(TB) leukemia) was > 100 µM, the TGI (A549 NSCLC) was 58.2 µM and the TGI (MALME-3M melanoma) was 24.9 µM. For the same molecule, the TGI (IGROV1 ovarian) was 65.5 µM, the TGI (HCT-15 colon) was 34.7 µM and the TGI (U251 CNS) was 23 µM. It also gave a TGI (HCT-116 colon) of 25.8 µM.
`O=C(O)c1cccc2cccc(C(=O)O)c12.[Hg]` was tested, and the GI50 (OVCAR-4 ovarian) was 18 µM, the TGI (OVCAR-4 ovarian) was 32.6 µM and the GI50 (UACC-62 melanoma) was > 100 µM. The TGI (UACC-62 melanoma) was > 100 µM, the GI50 (HCC-2998 colon) was 12 µM and the TGI (HCC-2998 colon) was 25.3 µM. For the same molecule, the GI50 (HL-60(TB) leukemia) was 19.3 µM, the TGI (HL-60(TB) leukemia) was 42.2 µM and the GI50 (A549 NSCLC) was 20.4 µM. The TGI (A549 NSCLC) was 42.3 µM, the GI50 (MALME-3M melanoma) was 4.04 µM and the TGI (MALME-3M melanoma) was 15 µM. The GI50 (IGROV1 ovarian) was 15.8 µM, the TGI (IGROV1 ovarian) was 29.2 µM and the GI50 (HCT-15 colon) was 14.4 µM. The TGI (HCT-15 colon) was 29.8 µM, the GI50 (U251 CNS) was 12.2 µM and the TGI (U251 CNS) was 26.8 µM. The GI50 (HCT-116 colon) was 15.9 µM and the TGI (HCT-116 colon) was 29.3 µM.
In the case of `O=C1/C(=C/c2ccccc2F)CN(C(=O)C(Cl)Cl)C/C1=C\c1ccccc1F`, the GI50 (OVCAR-4 ovarian) is reported as 0.526 µM, the TGI (OVCAR-4 ovarian) is reported as 1.83 µM and the GI50 (UACC-62 melanoma) is reported as 0.378 µM. For the same molecule, the TGI (UACC-62 melanoma) was 1.08 µM, the GI50 (HCC-2998 colon) was 0.696 µM and the TGI (HCC-2998 colon) was 1.96 µM. It also gave a GI50 (HL-60(TB) leukemia) of 0.363 µM, a TGI (HL-60(TB) leukemia) of 2.25 µM and a GI50 (A549 NSCLC) of 1.38 µM. It also gave a TGI (A549 NSCLC) of 3.32 µM, a GI50 (MALME-3M melanoma) of 0.599 µM and a TGI (MALME-3M melanoma) of 1.92 µM. The GI50 (IGROV1 ovarian) was 0.351 µM, the TGI (IGROV1 ovarian) was 1.44 µM and the GI50 (HCT-15 colon) was 0.217 µM. For the same molecule, the TGI (HCT-15 colon) was 0.694 µM, the GI50 (U251 CNS) was 0.213 µM and the TGI (U251 CNS) was 0.665 µM. For the same molecule, the GI50 (HCT-116 colon) was 0.131 µM and the TGI (HCT-116 colon) was 0.286 µM.
`CCOC(=O)N[C@@H]1C2CC(=O)C(O2)[C@@H]1OC` (some centres not stated) was tested, and the TGI (OVCAR-4 ovarian) was > 100 µM, the TGI (UACC-62 melanoma) was > 100 µM and the TGI (HCC-2998 colon) was > 100 µM. For the same molecule, the TGI (HL-60(TB) leukemia) was > 100 µM, the TGI (A549 NSCLC) was > 100 µM and the TGI (MALME-3M melanoma) was > 100 µM. The TGI (IGROV1 ovarian) was > 100 µM, the TGI (HCT-15 colon) was > 100 µM and the TGI (U251 CNS) was > 100 µM. For the same molecule, the TGI (HCT-116 colon) was > 100 µM.
In the case of `COc1nc(N)nc2c1ncn2[C@@H]1O[C@H](CO)[C@@H](O)[C@@H]1O`, the GI50 (OVCAR-4 ovarian) is reported as > 100 µM, the TGI (OVCAR-4 ovarian) is reported as > 100 µM and the GI50 (UACC-62 melanoma) is reported as > 100 µM. For the same molecule, the TGI (UACC-62 melanoma) was > 100 µM, the GI50 (HCC-2998 colon) was > 100 µM and the TGI (HCC-2998 colon) was > 100 µM. The GI50 (HL-60(TB) leukemia) was > 100 µM, the TGI (HL-60(TB) leukemia) was > 100 µM and the GI50 (A549 NSCLC) was > 100 µM. The TGI (A549 NSCLC) was > 100 µM, the GI50 (MALME-3M melanoma) was > 100 µM and the TGI (MALME-3M melanoma) was > 100 µM. The GI50 (IGROV1 ovarian) was > 100 µM, the TGI (IGROV1 ovarian) was > 100 µM and the GI50 (HCT-15 colon) was > 100 µM. For the same molecule, the TGI (HCT-15 colon) was > 100 µM, the GI50 (U251 CNS) was > 100 µM and the TGI (U251 CNS) was > 100 µM. For the same molecule, the GI50 (HCT-116 colon) was > 100 µM and the TGI (HCT-116 colon) was > 100 µM.
For `Cc1cc(=O)oc2c(OS(C)(=O)=O)c(OS(C)(=O)=O)ccc12`, the TGI (OVCAR-4 ovarian) was > 100 µM, the TGI (UACC-62 melanoma) was > 100 µM and the TGI (HCC-2998 colon) was > 100 µM. For the same molecule, the TGI (HL-60(TB) leukemia) was > 100 µM, the TGI (A549 NSCLC) was > 100 µM and the TGI (MALME-3M melanoma) was > 100 µM. The TGI (IGROV1 ovarian) was > 100 µM, the TGI (HCT-15 colon) was > 100 µM and the TGI (U251 CNS) was > 100 µM. For the same molecule, the TGI (HCT-116 colon) was > 100 µM.
For `CCCCCCCCCCCCCCCCCC(=O)OCC(C[As](=O)(O)O)OC(=O)CCCCCCCCCCCCCCCCC` (configuration not stated), the TGI (OVCAR-4 ovarian) was > 100 µM, the TGI (UACC-62 melanoma) was > 100 µM and the TGI (HCC-2998 colon) was > 100 µM. For the same molecule, the TGI (HL-60(TB) leukemia) was > 100 µM, the TGI (A549 NSCLC) was > 100 µM and the TGI (MALME-3M melanoma) was > 100 µM. For the same molecule, the TGI (IGROV1 ovarian) was > 100 µM, the TGI (HCT-15 colon) was > 100 µM and the TGI (U251 CNS) was > 100 µM. For the same molecule, the TGI (HCT-116 colon) was > 100 µM.
`CCn1c(-c2nonc2N)nc2cncc(C(=O)NCCNC)c21` was tested, and the GI50 (OVCAR-4 ovarian) was > 22.8 µM, the TGI (OVCAR-4 ovarian) was > 25 µM and the GI50 (UACC-62 melanoma) was 13.6 µM. For the same molecule, the TGI (UACC-62 melanoma) was > 25 µM, the GI50 (HCC-2998 colon) was 4.77 µM and the TGI (HCC-2998 colon) was > 25 µM. The GI50 (HL-60(TB) leukemia) was > 25 µM, the TGI (HL-60(TB) leukemia) was > 25 µM and the GI50 (A549 NSCLC) was 4.47 µM. The TGI (A549 NSCLC) was > 23.3 µM, the GI50 (MALME-3M melanoma) was 5.7 µM and the TGI (MALME-3M melanoma) was > 25 µM. The GI50 (IGROV1 ovarian) was 4.87 µM, the TGI (IGROV1 ovarian) was > 22.6 µM and the GI50 (HCT-15 colon) was 5.98 µM. For the same molecule, the TGI (HCT-15 colon) was > 25 µM, the GI50 (U251 CNS) was > 25 µM and the TGI (U251 CNS) was > 25 µM. For the same molecule, the GI50 (HCT-116 colon) was 2.78 µM and the TGI (HCT-116 colon) was > 25 µM.
